These are literature values, as cited in EP1860434A1, “Method for analysing substance mixtures” (Shimadzu Europa GmbH, priority 2006, dated 2007).

For this data set the following is noted: listed for the six substances of the Performance Test Probe; no measurement described.
For “2-Ethyliden-1.5-dimethyl-3.3-diphenyl-pyrrolidin”, the pKa-Wert is 9.6. On to `CN(C)C(=O)Oc1cccc([N+](C)(C)C)c1` [Neostigminbromid], for which the pKa-Wert was 12.

For `CC(N)Cc1ccc2c(c1)OCO2` (stereo not drawn) [Methylendioxyamphetamin (MDA), Methylendioxyamphetamin], the pKa-Wert is 9.7.
